Results: ChEMBL document CHEMBL1135845, “N-(arylacetyl)-biphenylalanines as potent VLA-4 antagonists” (Bioorg Med Chem Lett, 2002)

Columns and labels:
[1] = Inhibition of VLA-4 binding to radiolabeled vascular cell adhesion molecule-1 (VCAM-1) Ig fusion protein in human Jurkat cells; type: cell-based
[2] = biological target: T1, Integrin alpha-4/beta-7 (Homo sapiens, UniProt P13612+P26010); assay: Inhibition of alpha4-beta7 integrin binding to radiolabeled vascular cell adhesion molecule-1 (VCAM-1) Ig fusion protein in human Jurkat cells; type: cell-based
T1 sequence (P13612 whole entry): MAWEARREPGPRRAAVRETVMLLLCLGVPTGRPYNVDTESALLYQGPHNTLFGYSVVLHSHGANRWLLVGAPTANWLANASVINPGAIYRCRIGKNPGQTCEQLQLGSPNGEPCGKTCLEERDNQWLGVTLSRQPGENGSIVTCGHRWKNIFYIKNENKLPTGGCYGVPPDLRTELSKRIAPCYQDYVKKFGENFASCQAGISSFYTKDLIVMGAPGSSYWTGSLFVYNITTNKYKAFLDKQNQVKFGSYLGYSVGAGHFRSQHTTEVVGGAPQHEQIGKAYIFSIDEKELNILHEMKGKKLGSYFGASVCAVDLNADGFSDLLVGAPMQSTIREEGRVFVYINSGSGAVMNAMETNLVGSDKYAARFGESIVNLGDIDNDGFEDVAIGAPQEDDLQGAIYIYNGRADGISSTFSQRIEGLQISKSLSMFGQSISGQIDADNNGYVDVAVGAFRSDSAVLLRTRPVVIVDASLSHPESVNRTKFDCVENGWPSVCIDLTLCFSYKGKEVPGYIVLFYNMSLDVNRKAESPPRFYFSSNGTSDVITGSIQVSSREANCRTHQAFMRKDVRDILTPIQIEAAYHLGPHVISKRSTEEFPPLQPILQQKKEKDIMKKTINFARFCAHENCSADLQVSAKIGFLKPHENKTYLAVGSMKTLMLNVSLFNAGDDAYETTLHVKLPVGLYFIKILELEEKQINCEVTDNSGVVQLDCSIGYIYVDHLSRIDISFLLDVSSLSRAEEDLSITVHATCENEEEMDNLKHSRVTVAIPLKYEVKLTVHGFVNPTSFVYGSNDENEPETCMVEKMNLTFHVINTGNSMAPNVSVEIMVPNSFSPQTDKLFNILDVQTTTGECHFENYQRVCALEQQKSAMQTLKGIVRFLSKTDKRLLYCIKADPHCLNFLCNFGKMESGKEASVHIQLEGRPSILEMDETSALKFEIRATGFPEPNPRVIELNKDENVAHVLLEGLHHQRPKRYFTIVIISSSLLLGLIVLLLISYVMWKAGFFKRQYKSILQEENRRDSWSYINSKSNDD
T1 sequence (P26010 whole entry): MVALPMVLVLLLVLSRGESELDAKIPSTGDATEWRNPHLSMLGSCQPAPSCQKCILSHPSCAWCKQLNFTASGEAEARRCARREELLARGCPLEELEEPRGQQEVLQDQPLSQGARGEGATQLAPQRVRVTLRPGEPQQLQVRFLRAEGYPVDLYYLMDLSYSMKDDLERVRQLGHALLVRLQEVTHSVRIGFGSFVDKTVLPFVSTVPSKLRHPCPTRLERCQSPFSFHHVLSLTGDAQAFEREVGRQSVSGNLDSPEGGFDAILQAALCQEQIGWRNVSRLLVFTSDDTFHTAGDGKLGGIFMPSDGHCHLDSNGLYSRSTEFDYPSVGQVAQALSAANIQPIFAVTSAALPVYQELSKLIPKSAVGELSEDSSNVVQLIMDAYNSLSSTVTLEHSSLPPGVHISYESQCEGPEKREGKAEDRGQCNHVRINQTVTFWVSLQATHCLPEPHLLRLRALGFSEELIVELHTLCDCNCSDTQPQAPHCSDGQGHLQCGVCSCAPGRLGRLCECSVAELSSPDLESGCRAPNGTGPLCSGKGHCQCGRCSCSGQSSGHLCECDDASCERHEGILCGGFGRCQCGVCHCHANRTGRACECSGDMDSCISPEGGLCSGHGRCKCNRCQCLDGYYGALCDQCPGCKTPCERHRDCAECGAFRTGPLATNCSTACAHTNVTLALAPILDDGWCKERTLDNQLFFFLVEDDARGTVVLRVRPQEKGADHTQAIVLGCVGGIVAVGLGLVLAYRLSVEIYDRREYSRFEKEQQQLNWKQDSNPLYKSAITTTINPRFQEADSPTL

[3] = Plasma clearance rate in Sprague-Dawley rats; type: ADME, organism-based; conditions: rat, read-out: Clp
[4] = Bioavailability in rat (Sprague-Dawley) (dose 1 mg/kg i.v. and 2 mg/kg p.o.); type: ADME, organism-based; conditions: in vivo, po
[5] = Plasma half-life was determined in Sprague-Dawley rats after 0-8 h administration of the compound; type: ADME, organism-based; conditions: rat

Compound | IC50 [1] [nM] | IC50 [2] [nM] | clearance [3] [mL/min/kg] | bioavailability [4] [%] | half-life [5] [h]
COc1ccccc1-c1ccc(C[C@H](NC(=O)C2(c3cncc(Br)c3)CCCC2)C(=O)O)cc1 | 1.6 | 165 |  |  | 
COc1ccccc1-c1ccc(C[C@H](NC(=O)Cc2ccc(Cl)cc2)C(=O)O)cc1 | 315 |  |  |  | 
COc1ccccc1-c1ccc(C[C@H](NC(=O)Cc2cccc(Cl)c2)C(=O)O)cc1 | 328 |  |  |  | 
COc1ccccc1-c1ccc(C[C@H](NC(=O)Cn2cnnn2)C(=O)O)cc1 | 14.4 |  |  |  | 
COc1ccccc1-c1ccc(C[C@H](NC(=O)C2(c3ccccn3)CCCC2)C(=O)O)cc1 | 3 | 215 | > 100 | < 1 | 
COc1ccccc1-c1ccc(C[C@H](NC(=O)C(OC)c2ccccc2)C(=O)O)cc1 (stereo not given in full) | 7.1 |  |  |  | 
COc1ccccc1-c1ccc(C[C@H](NC(=O)Cn2cnc(Cl)c2Cl)C(=O)O)cc1 | 6.15 |  |  |  | 
COc1ccccc1-c1ccc(C[C@H](NC(=O)C2(c3ccnnc3)CCCC2)C(=O)O)cc1 | 0.5 | 33 |  |  | 
COc1ccccc1-c1ccc(C[C@H](NC(=O)C2(c3cccnc3)CC=CC2)C(=O)O)cc1 | 0.9 | 16.7 |  |  | 
COc1ccccc1-c1ccc(C[C@H](NC(=O)Cc2cccc(F)c2)C(=O)O)cc1 | 246 |  |  |  | 
COc1ccccc1-c1ccc(C[C@H](NC(=O)C2(c3cccnc3)CCC(C)C2)C(=O)O)cc1 (mixture of isomers) | 0.7 | 94 |  |  | 

Further lines, results first:

IC50 [1] [nM] | IC50 [2] [nM] | clearance [3] [mL/min/kg] | bioavailability [4] [%] | half-life [5] [h] | Compound
0.5 | 94 | > 100 | < 1 |  | COc1ccccc1-c1ccc(C[C@H](NC(=O)C2(c3cccnc3)CCOCC2)C(=O)O)cc1
12.9 |  |  |  |  | COc1ccccc1-c1ccc(C[C@H](NC(=O)Cc2cccnc2)C(=O)O)cc1
801 |  |  |  |  | COc1ccccc1-c1ccc(C[C@H](NC(=O)Cc2ccc3ccccc3c2)C(=O)O)cc1
14.1 |  | 7.5 | 94 | 2 | COc1ccccc1-c1ccc(C[C@H](NC(=O)C(C)(C)c2ccccc2)C(=O)O)cc1
0.7 | 49 | > 100 | 17 | 2.5 | COc1ccccc1-c1ccc(C[C@H](NC(=O)C2(c3ccncc3)CCCC2)C(=O)O)cc1
264 |  |  |  |  | COc1ccccc1-c1ccc(C[C@H](NC(=O)Cc2ccccc2)C(=O)O)cc1
4.8 |  |  |  |  | COc1ccccc1-c1ccc(C[C@H](NC(=O)Cc2ccccc2[N+](=O)[O-])C(=O)O)cc1
0.8 | 15 |  |  |  | COc1cc(C2(C(=O)N[C@@H](Cc3ccc(-c4ccccc4OC)cc3)C(=O)O)CCCC2)ccn1
1.4 | 158 | 82 | 6 | 0.4 | COc1ccccc1-c1ccc(C[C@H](NC(=O)C2(c3cccnc3)CCCCC2)C(=O)O)cc1
44.9 |  |  |  |  | COc1ccccc1-c1ccc(C[C@H](NC(=O)Cc2ccc([N+](=O)[O-])cc2)C(=O)O)cc1
16.6 |  |  |  |  | COc1ccccc1-c1ccc(C[C@H](NC(=O)Cc2ccc(Cl)cc2Cl)C(=O)O)cc1
1.5 | 44 | > 100 | 11 | 0.6 | COc1ccccc1-c1ccc(C[C@H](NC(=O)C2(c3cccnc3C)CCCC2)C(=O)O)cc1
129 |  |  |  |  | COc1ccccc1-c1ccc(C[C@H](NC(=O)Cc2ccc(F)cc2)C(=O)O)cc1
